Test results reported in PMC12254266, “Multicolored sequential resonance energy transfer for detection of simultaneous ligand binding at G protein-coupled receptors” (Nature Communications, 2025).
Values joined by “and” are separate entries in the source; they are usually repeats but may differ in a detail not shown here. Identical values can stand only once.

Columns and labels:
FFA1-Nluc = FFA1-Nluc (Homo sapiens, UniProt O14842); assay: DISCo-BRET (endpoint, spectra scan, kinetics) with TUG-2591 and TUG-2597 at C terminal Nluc tagged FFA1; format: binding; parameters: expressed in transfected cells; conditions: for Specific BRET (540/450), % of control: Figure 4Bi, single replicate values (technical duplicate); for Specific BRET (690/540), % of control: technical duplicate
FFA1-Nluc, sequence (O14842 whole entry): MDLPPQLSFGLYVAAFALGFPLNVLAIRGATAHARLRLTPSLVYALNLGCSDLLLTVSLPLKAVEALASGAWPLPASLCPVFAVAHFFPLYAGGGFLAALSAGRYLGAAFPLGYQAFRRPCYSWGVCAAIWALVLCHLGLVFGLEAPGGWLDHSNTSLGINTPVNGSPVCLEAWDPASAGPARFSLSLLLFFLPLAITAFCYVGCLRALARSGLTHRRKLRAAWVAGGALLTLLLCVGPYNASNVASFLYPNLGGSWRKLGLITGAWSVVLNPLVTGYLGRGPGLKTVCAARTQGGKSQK
Procedure: Nluc-FFA1 or FFA1-Nluc Flp-In T-REx 293 cells were plated at 50,000 cells per well in poly-D-lysine coated white 96-well plates. Cells were cultured for 24 h in the plate before medium was replaced with medium containing 100 ng/mL of doxycycline to induce receptor expression. After culturing for a further 24 h, culture medium was removed, cells washed with HBSS and incubated in HBSS for 30 min. For all DISCo-BRET formats Nano-Glo substrate was then added at a 1:800 final dilution and cells incubated for 10 min. Following substrate addition experimental set up different among the three formats: endpoint, spectra scan, and kinetics.
For endpoint experiments all fluorescent and unlabelled ligands were added to the cells and incubated for 5 min at 37 °C. Luminescent emission was then measured using a CLARIOstar microplate reader with monochromator set at 450–60 nm (Nluc), 540−60 nm (NBD) and 690–100 nm (SulfoCy5). BRET ratios were then calculated as either SulfoCy5 emission divided by NBD emission, SulfoCy5 emission divided by Nluc emission, or NBD emission divided by Nluc emission.
For spectra scan experiments all indicated fluorescent and unlabelled ligands were added to the cells and cells incubated for 5 min at 37 °C. Luminescence emissions were then measured from each well of the plate from 440 nm – 740 nm with a 5 nm resolution using a CLARIOstar microplate. Luminescent emission spectra were then normalised as a percentage of the maximal Nluc emission peak ( ~ 460 nm), then subtracted with the spectrum obtained in the presence of high concentrations of ligands competing for both binding sites to obtain specific BRET binding spectra.
In kinetic DISCo-BRET experiments plates were placed directly in a CLARIOstar plate reader set to 25 °C 10 min after Nano-Glo substrate addition. Luminescent measurements were then taken with three sequential measurements per well with the monochromator set to 450–60 nm (Nluc), 540 - 60 nm (NBD) and 690–100 nm (SulfoCy5) taken in 20 or 30 s intervals. After 5 min of background measurements, the plate reader was paused for the first indicated fluorescent ligand(s) addition, before immediately returning the plate to the reader to continue luminescence readings. After 5 min, the reader was again paused to add the second fluorescent ligand (association assays) or competing ligand(s) (dissociation assays), before immediately continuing the measurements for the indicated time. Non-specific control binding was obtained by adding the indicated competing ligand(s) 5 min prior to the addition of the first fluorescent ligand.

Nluc-FFA1 = biological target: T1, Nluc-FFA1 (Homo sapiens, UniProt O14842); assay: NanoBRET binding (saturation, competition, kinetics) at N terminal Nluc tagged FFA1; conditions: technical duplicates; for Specific BRET (690/450)%: Figure 4Ci; for Specific BRET (540/450)%: Figure 4Cii
T1 construct: expressed in transfected cells
T1 sequence (O14842 whole entry): as above
Procedure: Nluc-FFA1 or FFA1-Nluc Flp-In T-REx 293 cells were plated at 50,000 cells per well in poly-D-lysine coated white 96-well plates. Cells were cultured for 24 h in the plate before medium was replaced with medium containing 100 ng/mL of doxycycline to induce receptor expression. After culturing for a further 24 h, medium was removed, cells were washed with HBSS and incubated in HBSS for 30 min. To start the assay, NanoGlo substrate (Promega, N1110) was added to the cells at a 1:800 final dilution and incubated for 10 min at 37 °C. For endpoint assays, including both saturation and competition binding, test ligands were then added, including both fluorescent and unlabelled competing ligands as indicated, and plates incubated for a further 5 min at 37 °C. NanoBRET was then quantified in a CLARIOstar microplate reader (BMG Labtech) by measuring luminescent emission with the monochrometer set for the Nluc donor at 450–60 nm, and acceptor luminescent emission 540–60 nm (NBD), 600–80 nm (Cy3.5) or 690–100 nm (SulfoCy5), depending on which fluorophore was being tested. The acceptor/donor BRET ratio was then taken as a measure of fluorophore binding. For kinetic on then off NanoBRET experiments plates were washed the same way and substrate was added to the same concentration. However, 10 min after substrate was added plates were inserted into the CLARIOstar microplate reader set to 25 °C to take repeated measurements of luminescent emission for both the donor and the acceptor fluorophore being used. After 5 min of background measurements, the indicated concentration of fluorescent ligand was added using the plate reader injector and luminescent emission was monitored for ~10 min before the reader was paused to manually add a high concentration of appropriate competing ligand to initiate dissociation. The plate was returned to the reader and luminescence measurements were continued for a further 30 min to monitor dissociation of the fluorescent ligand. For kinetic experiments using multiple concentrations of fluorescent ligand, cells were placed in the plate reader immediately after the addition of Nano-Glo substrate and luminescent measurements were taken. After 5 min, the reader was paused to add the indicated concentrations of fluorescent ligand, before measurements were continued. To set non-specific binding for kinetic experiments, the indicated competing ligand was added 5 min before the addition of the fluorescent ligand.

Cc1cc(OCCCS(C)(=O)=O)cc(C)c1-c1cccc(COc2ccc3c(c2)OC[C@H]3CC(=O)O)c1 [TAK-875]
Specific BRET (540/450), % of control (FFA1-Nluc; log[Ligand] -6): 467.51 % of control and 353.62 % of control and 390.67 % of control and 390.47 % of control and 245.96 % of control and 264.46 % of control and 322.48 % of control and 320.38 % of control | Specific BRET (540/450), % of control (FFA1-Nluc; log[Ligand] -6.5): 416.30 % of control and 439.27 % of control and 347.06 % of control and 353.35 % of control and 259.50 % of control and 260.52 % of control and 247.59 % of control and 261.94 % of control | Specific BRET (540/450), % of control (FFA1-Nluc; log[Ligand] -7): 359.13 % of control and 319.17 % of control and 300.41 % of control and 327.99 % of control and 232.12 % of control and 230.66 % of control and 238.32 % of control (2×) | Specific BRET (540/450), % of control (FFA1-Nluc; log[Ligand] -7.5): 230.54 % of control and 249.60 % of control and 216.23 % of control and 242.80 % of control and 172.25 % of control and 154.77 % of control and 142.78 % of control and 178.30 % of control | Specific BRET (540/450), % of control (FFA1-Nluc; log[Ligand] -8): 168.77 % of control and 177.73 % of control and 170.59 % of control and 182.76 % of control and 139.62 % of control and 128.26 % of control and 117.24 % of control and 129.48 % of control | Specific BRET (540/450), % of control (FFA1-Nluc; log[Ligand] -9): 109.76 % of control and 130.42 % of control and 118.05 % of control and 144.22 % of control and 109.32 % of control and 101.46 % of control and 92.91 % of control and 104.81 % of control | Specific BRET (690/540), % of control (FFA1-Nluc; log[Ligand] -9): 98.23 % of control | Specific BRET (540/450), % of control (FFA1-Nluc; log[Ligand] -10): 110.45 % of control and 140.76 % of control and 99.39 % of control and 126.77 % of control and 105.68 % of control and 97.52 % of control and 91.86 % of control and 108.31 % of control | Specific BRET (690/540), % of control (FFA1-Nluc; log[ligand] -8): 82.90 % of control | 'bottom' of the IC50 curve, DISCo-BRET NBD/Nluc (FFA1-Nluc; percentage of binding obtained in the absence of competing ligand): 360% | 'bottom' of the IC50 curve, DISCo-BRET SulfoCy5/NBD (FFA1-Nluc; percentage of binding obtained in the absence of competing ligand, 100 nM TUG-2591 and […] TUG-2597): -3.0% | Specific BRET (690/450)% (Nluc-FFA1; log[Ligand] -6): 10.18% and 12.73% and 3.99% and 7.92% and 4.81% and 6.50% | Specific BRET (690/450)% (Nluc-FFA1; log[Ligand] -6.5): 32.21% and 35.14% and 21.21% and 27.75% and 22.79% and 22.32% | Specific BRET (690/450)% (Nluc-FFA1; log[Ligand] -7): 65.25% and 65.98% and 70.04% and 73.07% and 59.65% and 56.69% | Specific BRET (690/450)% (Nluc-FFA1; log[Ligand] -7.5): 85.12% and 83.85% and 95.80% and 94.83% and 87.89% and 88.68% | Specific BRET (690/450)% (Nluc-FFA1; log[Ligand] -8): 89.18% and 88.01% and 105.30% and 110.61% and 94.39% and 90.53% | Specific BRET (690/450)% (Nluc-FFA1; log[Ligand] -9): 97.11% and 97.99% and 104.48% and 114.53% and 100.63% and 97.67% | Specific BRET (690/450)% (Nluc-FFA1; log[Ligand] -10): 87.86% and 92.46% and 110.54% and 109.16% and 102.75% and 97.62% | Specific BRET (690/450)% (Nluc-FFA1; log[Ligand] -11): 100.29% and 99.71% and 99.72% and 100.28% and 98.52% and 101.48% | Specific BRET (540/450)% (Nluc-FFA1; log[Ligand] -9): 172.87% and 190.47% and 142.88% and 120.34% and 106.26% and 112.65% and 111.64% and 106.85% | Specific BRET (540/450)% (Nluc-FFA1; log[Ligand] -10): 149.59% and 142.25% and 115.93% and 128.15% and 104.61% and 106.65% and 101.74% and 108.27% | Specific BRET (540/450)% (Nluc-FFA1; log[Ligand] -11): 103.21% and 96.79% and 95.91% and 104.09% and 99.52% and 100.48% and 105.48% and 94.52%
